# From US12465791B2, “Oral care composition” (Colgate-Palmolive Company, priority 2014, dated 2025)
# Tests used:
# HSP-27 = assay: Intracellular HSP 27 expression in scratched keratinocytes (ELISA); format: cell-based, human; settings: for HSP-27, intracellular: scratched keratinocytes, 50 ppm Arginine
# Description: Human keratinocytes are cultured in DMEM medium supplemented with 10% FBS and 1% of antibiotic at 37° C. under a 5% CO2 atmosphere in petri dishes. Once the cells are 80-90% confluent, a scratch is made horizontally and a scratch is made vertically across the layer of cells. […] […] The cell suspension is then homogenized with metal beads for 5 minutes and then analyzed for HSP27 using ELISA. In both untreated and arginine treated cells, scratching induces a strong increase in intracellular HSP-27 expression at one hour which declines at 4 hours. […] Without being bound by theory, Applicants believe that it is this initial burst of HSP-27 expression at the time of physical injury that contributes to improved wound healing.
# HSP 27 = HSP 27 production in scratched (damaged) human gingival tissue, level in cell supernatant; format: cell-based; settings: for HSP27 concentration: scratched gingival tissue, arginine 50 ppm in culture medium, 37° C.
# Description: A scratching protocol was used to damage and stress human gingival tissue (MatTek Corporation). Arginine, at a dose of 50 ppm was applied to the culture medium containing the tissue. The treated tissue was incubated at 37° C. to promote tissue healing. Cell supernatant was collected at various time points and the level of HSP 27 was measured.
# Human keratinocytes = assay: Gap closure after scratch, migration of human keratinocytes; format: cell-based; settings: 100 ppm Arginine in DMEM
# Description: Human keratinocytes are cultured in DMEM medium supplemented with 10% FBS and 1% of antibiotic at 37° C. under a 5% CO2 atmosphere in petri dishes. Once the cells are 80-90% confluent, a scratch is made horizontally and a scratch is made vertically across the layer of cells. 1 ml of a test solution is added to the culture, and the cells are further incubated and monitored by photomicroscopy to evaluate the closure of the gap created by the scratches. The test solutions compared are 100 ppm Arginine in DMEM medium and untreated DMEM medium. The results are shown in Table 3 below, expressed as the average width of the gap as a percentage of the initial width of the gap (at 0 hours).
# A second gap closure experiment is also performed which compares the results obtained when 100 ppm Arginine in DMEM is used against 1:500 v/v dilutions of commercial mouthwash formulations. In one test, a 0.8% w/v arginine mouthwash formulation is used. In a second test, a 0.075% w/v cetylpyridinium chloride (CPC) mouthwash formulation is used as a negative control. CPC is common antibacterial agent and preservative used in oral care products.
structure (smiles),measurement,setting,value
"N=C(N)NCCCC(N)C(=O)O (stereo not shown) [Arginine, 2-amino-5-guanidinopentanoic acid]",intracellular HSP-27 expression compared to untreated scratched cells,HSP-27; 50 ppm arginine,significantly higher expression
same,"HSP-27, intracellular",HSP-27; time 0 hr,17.11 ng/mL
same,"HSP-27, intracellular",HSP-27; time 1 hr,64.04 ng/mL
same,"HSP-27, intracellular",HSP-27; time 2 hr as printed in the table,45.12 ng/mL
same,"production of HSP 27 compared to the untreated, scratched tissue","HSP 27; arginine 50 ppm, at 1 hour and at 4 hours",significantly accelerated
same,HSP27 concentration,HSP 27; incubation time 0 hr,22.78 ng/mL
same,HSP27 concentration,HSP 27; incubation time 1 hr,218.76 ng/mL
same,HSP27 concentration,HSP 27; incubation time 4 hr,359.72 ng/mL
same,speed of gap closure compared to the DMEM control,Human keratinocytes,significantly faster
same,% Gap Closure,Human keratinocytes; 24 hr after scratch,21%
same,% Gap Closure,Human keratinocytes; 48 hr after scratch,63%
same,% Gap Closure,Human keratinocytes; 144 hr after scratch,100%
same,% Gap Closure,"Human keratinocytes; second experiment, 48 hr",75%
